Test [1] addresses T1, Serotonin 3 (5-HT3) receptor (Rattus norvegicus) (UniProt P35563+Q9JJ16). Briefly: Antagonistic activity of compound towards 5-hydroxytryptamine 3 receptor in Von Bezold-Jarisch reflex in rats at 60(ug/kg), evaluated as percent inhibition of bradycardia. The class given is functional.
In test [2] the target is T2, 5-hydroxytryptamine receptor 1A (Homo sapiens, UniProt P08908).
T2 sequence (P08908 whole entry): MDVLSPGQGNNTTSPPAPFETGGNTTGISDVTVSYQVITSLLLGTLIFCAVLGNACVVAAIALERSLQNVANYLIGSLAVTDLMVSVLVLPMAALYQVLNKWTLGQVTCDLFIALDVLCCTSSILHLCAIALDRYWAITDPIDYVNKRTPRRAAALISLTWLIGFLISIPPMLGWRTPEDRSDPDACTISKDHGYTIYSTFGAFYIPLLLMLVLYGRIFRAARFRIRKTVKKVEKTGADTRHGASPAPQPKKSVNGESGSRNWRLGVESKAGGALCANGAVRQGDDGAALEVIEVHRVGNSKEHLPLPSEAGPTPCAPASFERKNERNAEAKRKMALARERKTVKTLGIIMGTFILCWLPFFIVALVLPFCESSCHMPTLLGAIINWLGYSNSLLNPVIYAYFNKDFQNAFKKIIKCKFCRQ
Briefly: Binding affinity for 5-hydroxytryptamine 1A receptor.

For test [3], the target named is T3, 5-hydroxytryptamine receptor 2C (Homo sapiens, UniProt P28335).
T3 sequence (P28335 whole entry): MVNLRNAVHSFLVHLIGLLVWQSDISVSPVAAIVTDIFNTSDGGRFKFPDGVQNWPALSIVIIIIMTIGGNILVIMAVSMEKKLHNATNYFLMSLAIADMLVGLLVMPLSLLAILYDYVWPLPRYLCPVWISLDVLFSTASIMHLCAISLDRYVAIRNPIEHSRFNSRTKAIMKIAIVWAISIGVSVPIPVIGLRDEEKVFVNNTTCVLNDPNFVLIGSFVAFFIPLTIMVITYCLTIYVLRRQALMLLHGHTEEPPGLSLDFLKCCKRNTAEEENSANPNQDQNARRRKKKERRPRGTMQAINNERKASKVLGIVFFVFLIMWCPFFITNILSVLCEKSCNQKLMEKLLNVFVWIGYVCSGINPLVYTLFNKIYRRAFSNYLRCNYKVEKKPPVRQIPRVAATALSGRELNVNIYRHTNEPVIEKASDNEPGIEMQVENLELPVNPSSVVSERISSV
Briefly: Binding affinity towards 5-hydroxytryptamine 2C receptor.

Test [4] deals with T1, Serotonin 3 (5-HT3) receptor (Rattus norvegicus). Briefly: Agonistic activity of compound towards 5-hydroxytryptamine 3 receptor in Von Bezold-Jarisch Reflex in rats at 60 (ug/kg), evaluated as change in heart rate. The format is functional.
Test [5] deals with T4, Serotonin 3 (5-HT3) receptor (Rattus norvegicus, UniProt P35563+Q9JJ16).
T4 sequence (P35563 whole entry): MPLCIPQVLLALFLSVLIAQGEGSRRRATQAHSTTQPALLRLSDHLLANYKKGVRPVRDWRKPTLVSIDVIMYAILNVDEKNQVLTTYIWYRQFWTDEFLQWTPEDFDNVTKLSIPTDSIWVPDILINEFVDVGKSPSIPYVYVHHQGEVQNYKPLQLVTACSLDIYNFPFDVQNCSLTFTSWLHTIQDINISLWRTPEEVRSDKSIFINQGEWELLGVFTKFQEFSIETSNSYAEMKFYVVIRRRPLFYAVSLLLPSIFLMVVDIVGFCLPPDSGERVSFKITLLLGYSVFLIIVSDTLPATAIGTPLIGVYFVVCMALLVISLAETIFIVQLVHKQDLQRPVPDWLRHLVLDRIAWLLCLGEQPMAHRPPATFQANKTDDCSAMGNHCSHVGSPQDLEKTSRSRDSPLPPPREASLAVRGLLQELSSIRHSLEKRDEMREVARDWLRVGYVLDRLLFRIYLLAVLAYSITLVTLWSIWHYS
T4 sequence (Q9JJ16 whole entry): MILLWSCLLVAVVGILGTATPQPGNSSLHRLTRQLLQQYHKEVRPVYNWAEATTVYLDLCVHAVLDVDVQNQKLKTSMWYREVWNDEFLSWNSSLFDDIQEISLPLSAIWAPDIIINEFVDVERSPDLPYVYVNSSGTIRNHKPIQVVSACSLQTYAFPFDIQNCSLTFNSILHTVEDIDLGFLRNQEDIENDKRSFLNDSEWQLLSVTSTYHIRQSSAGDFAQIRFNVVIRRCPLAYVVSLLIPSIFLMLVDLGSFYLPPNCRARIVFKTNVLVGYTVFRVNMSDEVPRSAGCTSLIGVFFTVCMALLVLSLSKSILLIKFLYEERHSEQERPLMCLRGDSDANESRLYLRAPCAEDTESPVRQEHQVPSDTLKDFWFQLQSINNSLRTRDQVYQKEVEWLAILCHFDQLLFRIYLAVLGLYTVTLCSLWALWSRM
Briefly: Binding affinity towards 5-hydroxytryptamine 3 receptor. The class given is protein-complex assay.

Test [6] addresses T1, Serotonin 3 (5-HT3) receptor (Rattus norvegicus). Briefly: Agonistic activity of compound towards 5-hydroxytryptamine 3 receptorr in Von Bezold-Jarisch Reflex in rats at 100 (ug/kg), evaluated as change in heart rate. The format is functional.
A further test has as its system NG108-15. Briefly: In vitro effective concentration against [14C]guanidinium uptake into NG 108-15 cells. The conditions noted are these: Murinae, read-out: ED50 (the source's name). The class given is functional.
In test [7] the target is 5-hydroxytryptamine receptor 2A (Bos taurus, UniProt Q75Z89). As to the kind of experiment: Binding affinity towards 5-hydroxytryptamine 2A receptor.
5-hydroxytryptamine receptor 2A, sequence (Q75Z89 whole entry): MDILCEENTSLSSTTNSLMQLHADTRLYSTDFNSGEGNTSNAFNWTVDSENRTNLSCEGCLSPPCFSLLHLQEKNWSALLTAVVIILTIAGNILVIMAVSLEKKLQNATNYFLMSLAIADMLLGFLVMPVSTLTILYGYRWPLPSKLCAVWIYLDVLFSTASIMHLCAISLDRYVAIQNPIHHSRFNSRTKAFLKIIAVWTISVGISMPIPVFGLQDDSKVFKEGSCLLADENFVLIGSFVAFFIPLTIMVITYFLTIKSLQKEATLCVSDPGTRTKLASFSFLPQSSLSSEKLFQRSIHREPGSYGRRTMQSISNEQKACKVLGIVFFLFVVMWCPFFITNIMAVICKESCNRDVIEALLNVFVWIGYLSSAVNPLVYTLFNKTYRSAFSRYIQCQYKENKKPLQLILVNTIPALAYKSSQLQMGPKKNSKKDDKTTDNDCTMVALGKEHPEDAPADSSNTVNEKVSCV
The target of test [8] is 5-hydroxytryptamine receptor 1B (Rattus norvegicus, UniProt P28564). Briefly: Binding affinity for 5-hydroxytryptamine 1B receptor.
5-hydroxytryptamine receptor 1B, sequence (P28564 whole entry): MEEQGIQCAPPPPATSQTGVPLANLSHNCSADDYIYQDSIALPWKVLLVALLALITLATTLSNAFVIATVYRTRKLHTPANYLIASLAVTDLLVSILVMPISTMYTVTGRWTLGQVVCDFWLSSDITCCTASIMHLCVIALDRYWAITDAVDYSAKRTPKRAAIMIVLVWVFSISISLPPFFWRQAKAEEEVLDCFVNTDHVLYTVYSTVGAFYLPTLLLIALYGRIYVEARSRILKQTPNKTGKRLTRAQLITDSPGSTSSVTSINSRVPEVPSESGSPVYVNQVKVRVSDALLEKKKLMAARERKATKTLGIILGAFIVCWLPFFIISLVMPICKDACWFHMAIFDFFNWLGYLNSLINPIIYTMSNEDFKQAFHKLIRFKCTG
The target in test [9] is 5-hydroxytryptamine receptor 1D (Sus scrofa, UniProt P79400). Briefly: Binding affinity for 5-hydroxytryptamine 1D receptor.
5-hydroxytryptamine receptor 1D, sequence (P79400 whole entry): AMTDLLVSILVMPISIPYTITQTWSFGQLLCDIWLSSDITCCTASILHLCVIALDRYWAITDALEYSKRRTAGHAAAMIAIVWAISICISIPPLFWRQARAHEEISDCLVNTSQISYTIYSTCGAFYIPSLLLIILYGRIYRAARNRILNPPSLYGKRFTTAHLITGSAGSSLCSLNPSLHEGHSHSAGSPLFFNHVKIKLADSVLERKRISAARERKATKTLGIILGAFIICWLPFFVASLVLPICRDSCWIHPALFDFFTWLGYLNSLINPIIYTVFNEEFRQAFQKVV

These results are taken from ChEMBL document CHEMBL1129317, “Novel selective and partial agonists of 5-HT3 receptors. Part 1. Synthesis and biological evaluation of piperazinopyrrolothienopyrazines” (J Med Chem, 1996).

SMILES strings stand for the structures.

Turning to `C=CCN1CCN(c2nc3sccc3n3cccc23)CC1`, the figures for the Change in test [1], in test [4] and in test [6] were 67%, 30% and 72%, respectively. Moreover, the IC50 in test [2] is 67.6 nM; in test [3], 759 nM; in [5], 0.912 nM; in test [7] it was 2340 nM; in [8], 417 nM; in [9] it was 468 nM. Besides, the EC50 with NG108-15 came to 4 nM.

As usually defined, the IC50 is the concentration that inhibits the measured activity by half. Read a low IC50 as higher potency.
